Data on 1 compound can be found in patent US20220304992A1, “METHODS OF REJUVENATING AGED TISSUE BY INHIBITING 15-HYDROXYPROSTAGLANDIN DEHYDROGENASE (15-PGDH)” (The Board of Trustees of the Leland Stanford Junior …, priority 2019, published 2022).

The subject of this experiment is PGE2 and PGD2 levels in muscle tissue. The experiment is described as follows: LC-MS/MS of prostaglandins in muscle tissue lysates. The format is in vivo, mouse. The conditions noted are these: aged mice, daily i.p., 1 month. The method, then: All prostaglandin standards-PGF2a; PGE2; PGD2; 15-keto PGE2; 13,14-dihydro 15-keto PGE2; PGE2-D4; and PGF2α-D9—were purchased from Cayman Chemical. For the PGE2-D4 internal standard, positions 3 and 4 were labeled with a total of four deuterium atoms. For PGF2α-D9, positions 17, 18, 19 and 20 were labeled with a total of nine deuterium atoms.
Analyte stock solutions (5 mg/mL) were prepared in DMSO. These stock solutions were serially diluted with acetonitrile/water (1:1 v/v) to obtain a series of standard working solutions, which were used to generate the calibration curve. […]
Solid tissues were harvested, weighed, and snap-frozen with liquid nitrogen. […] The dry residue was reconstituted in 100 μL acetonitrile/10 mM ammonium acetate (2:8 v/v) and analyzed by LC-MS/MS.
Since many prostaglandins are positional isomers with identical masses and have similar fragmentation patterns, chromatographic separation is critical. Two SRM transitions-one quantifier and one qualifier-were carefully selected for each analyte. […]
Quantitative analysis was done using LabSolutions LCMS (Shimadzu). An internal standard method was used for quantification: PGE2-D4 was used as an internal standard for quantification of PGE2, 15-keto PGE2, and 13, 14-dihydro 15-keto PGE2. […]

Each structure is given as a SMILES string. “Also recorded” adds a separate entry of the source.

On to `CCCC[S+]([O-])c1sc2nc(-c3cccs3)cc(-c3ccccc3)c2c1N` (centres unmarked) [SW033291, 2-(butylsulfinyl)-4-phenyl-6-(thiophen-2-yl)thieno[2,3-b]pyridin-3-amine], for which the “PGD2 levels in muscle” value is listed as “increase”. For the setting “listed as SW”, the “PGE2 levels in muscle” value was “elevated; also recorded: increase”.
